# Assay results reported in patent US12286427B2, “Heterocyclic compounds and uses thereof” (Kumquat Biosciences Inc., priority 2020, dated 2025).
# Key:
# [1] = target: mutant Kras (Homo sapiens, UniProt P01116); experiment: Nucleotide exchange assay (SOS1-mediated, BODIPY FL GDP fluorescence); type: biochemical; conditions: 250 nM or 500 nM GDP-loaded K-Ras, SOS1 catalytic domain, fluorescent labelled GDP 0.36 μM, 70 minutes; read-out: IC50 against mutant Kras
# Experimental: (§1) For example, 250 nM or 500 nM GDP-loaded K-Ras proteins (e.g., wildtype or a mutant thereof including those mentioned in Example 6), each was incubated with different concentrations of compounds (for example ˜60 μM, ˜20 μM, ˜6.7 μM, ˜2.2 μM, ˜0.7 μM, ˜0.2 μM subject compound). A control reaction without subject compound was also included. SOS1 (catalytic domain) protein was added to the K-Ras protein solution. The nucleotide exchange reaction was initiated by adding fluorescent labelled GDP (Guanosine 5′-Diphosphate, BODIPY™ FL 2′-(or-3′)—O—(N-(2-Aminoethyl) Urethane) to a final concentration of 0.36 μM. Fluorescence was measured every 30 s for 70 minutes at 490 nm/515 nm (excitation/emission) in a M1000Pro plate reader (Tecan). Data is exported and analyzed to calculate an IC50 using GraphPad Prism (GraphPad Software). Samples were tested with or without a subject compound disclosed herein including compounds exemplified in Table 1 to assess each compound's ability to inhibit K-Ras signaling or its IC50 against a given Ras protein (e.g., a given mutant K-Ras) of interest.
# [2] = target: T1, wildtype Kras (Homo sapiens, UniProt P01116); experiment: as above; type: biochemical; conditions: 250 nM or 500 nM GDP-loaded K-Ras, SOS1 catalytic domain, fluorescent labelled GDP 0.36 μM, 70 minutes; read-out: IC50 against wildtype Kras
# T1 construct: GST (N); made in house; host or cells: E. coli, e.g. BL21 (DE3)
# Experimental: as §1
# T1 sequence (P01116 1-188 isoform P01116-2): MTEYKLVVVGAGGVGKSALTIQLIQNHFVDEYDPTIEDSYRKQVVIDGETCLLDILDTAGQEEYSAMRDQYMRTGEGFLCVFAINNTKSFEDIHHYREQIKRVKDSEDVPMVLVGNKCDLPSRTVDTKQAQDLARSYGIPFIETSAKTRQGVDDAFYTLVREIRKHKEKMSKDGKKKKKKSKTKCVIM
# Sequence of mutant Kras (P01116 whole entry G12D, form open, the tested form may be a part): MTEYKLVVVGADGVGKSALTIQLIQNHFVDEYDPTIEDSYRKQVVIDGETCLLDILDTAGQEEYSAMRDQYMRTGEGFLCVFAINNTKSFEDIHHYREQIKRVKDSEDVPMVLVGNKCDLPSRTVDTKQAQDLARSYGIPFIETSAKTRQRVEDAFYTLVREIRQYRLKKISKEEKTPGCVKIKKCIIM
IC50 [1],IC50 [2],Compound
< 500 nM,500 to 5000 nM,"CN1CCC[C@H]1COc1nc(N2CC[C@H](N)C2)c2cc(Cl)c(-c3cccc4sc(N)nc34)c(F)c2n1 [Compound 11, 4-(4-((S)-3-aminopyrrolidin-1-yl)-6-chloro-8-fluoro-2-(((S)-1-methylpyrrolidin-2-yl)methoxy)quinazolin-7-yl)benzo[d]thiazol-2-amine]"
< 500 nM,< 500 nM,"Cc1c(N)sc2c(F)ccc(-c3c(Cl)cc4c(N5C[C@H]6CC[C@@H](C5)N6)nc(OC[C@@]56CCCN5C[C@H](F)C6)nc4c3F)c12 [Compound 21, 4-(4-((1R,5S)-3,8-diazabicyclo[3.2.1]octan-3-yl)-6-chloro-8-fluoro-2-(((2R,7aS)-2-fluorotetrahydro-1H-pyrrolizin-7a(5H)-yl)methoxy)quinazolin-7-yl)-7-fluoro-3-methylbenzo[b]thiophen-2-amine]"
< 500 nM,500 to 5000 nM,"CN1CCC[C@H]1COc1nc(N2CCC[C@@H](N)C2)c2cc(Cl)c(-c3cccc4sc(N)nc34)c(F)c2n1 [Compound 8, 4-(4-((R)-3-aminopiperidin-1-yl)-6-chloro-8-fluoro-2-(((S)-1-methylpyrrolidin-2-yl)methoxy)quinazolin-7-yl)benzo[d]thiazol-2-amine]"
< 500 nM,< 500 nM,"N#Cc1c(N)sc2c(F)ccc(-c3c(Cl)cc4c(N5C[C@H]6CC[C@@H](C5)N6)nc(OC[C@@]56CCCN5C[C@H](F)C6)nc4c3F)c12 [Compound 19, 4-(4-((1R,5S)-3,8-diazabicyclo[3.2.1]octan-3-yl)-6-chloro-8-fluoro-2-(((2R,7aS)-2-fluorotetrahydro-1H-pyrrolizin-7a(5H)-yl)methoxy)quinazolin-7-yl)-2-amino-7-fluorobenzo[b]thiophene-3-carbonitrile]"
< 500 nM,> 5000 nM,"CN1CCC[C@H]1COc1nc(N2C[C@H](N)C[C@@H](O)C2)c2cc(Cl)c(-c3cccc4sc(N)nc34)c(F)c2n1 [Compound 4, (3R,5R)-5-amino-1-(7-(2-aminobenzo[d]thiazol-4-yl)-6-chloro-8-fluoro-2-(((S)-1-methylpyrrolidin-2-yl)methoxy)quinazolin-4-yl)piperidin-3-ol]"
< 500 nM,500 to 5000 nM,"Nc1nc2c(-c3c(Cl)cc4c(N5CCNCC5)nc(OCC56CCCN5CCC6)nc4c3F)cccc2s1 [Compound 12, 4-(6-chloro-8-fluoro-4-(piperazin-1-yl)-2-((tetrahydro-1H-pyrrolizin-7a(5H)-yl)methoxy)quinazolin-7-yl)benzo[d]thiazol-2-amine]"
< 500 nM,500 to 5000 nM,"COc1nc2c(N3CC4CCC(C3)N4)nc(OC[C@@]34CCCN3C[C@H](F)C4)nc2cc1-c1ccc(F)c2sc(N)nc12 [Compound 14, 4-(4-(3,8-diazabicyclo[3.2.1]octan-3-yl)-2-(((2R,7aS)-2-fluorotetrahydro-1H-pyrrolizin-7a(5H)-yl)methoxy)-6-methoxypyrido[3,2-d]pyrimidin-7-yl)-7-fluorobenzo[d]thiazol-2-amine]"
< 500 nM,> 5000 nM,"Nc1nc2c(-c3cnc4c(N5CC6CCC(C5)N6)nc(OC[C@@]56CCCN5C[C@H](F)C6)nc4c3)ccc(F)c2s1 [Compound 13, 4-(4-(3,8-diazabicyclo[3.2.1]octan-3-yl)-2-(((2R,7aS)-2-fluorotetrahydro-1H-pyrrolizin-7a(5H)-yl)methoxy)pyrido[3,2-d]pyrimidin-7-yl)-7-fluorobenzo[d]thiazol-2-amine]"
< 500 nM,> 5000 nM,"COc1nc2c(N3C4CCC3CNC4)nc(OC[C@@]34CCCN3C[C@H](F)C4)nc2cc1-c1ccc(F)c2sc(N)nc12 [Compound 15, 4-(4-(3,8-diazabicyclo[3.2.1]octan-8-yl)-2-(((2R,7aS)-2-fluorotetrahydro-1H-pyrrolizin-7a(5H)-yl)methoxy)-6-methoxypyrido[3,2-d]pyrimidin-7-yl)-7-fluorobenzo[d]thiazol-2-amine]"
< 500 nM,500 to 5000 nM,"CN1CCC[C@H]1COc1nc(N2CC(N)CC(O)C2)c2cc(Cl)c(-c3cccc4sc(N)nc34)c(F)c2n1 (stereo partly drawn) [Compound 5, 5-amino-1-(7-(2-aminobenzo[d]thiazol-4-yl)-6-chloro-8-fluoro-2-(((S)-1-methylpyrrolidin-2-yl)methoxy)quinazolin-4-yl)piperidin-3-ol]"
< 500 nM,< 500 nM,"Cc1c(N)sc2cccc(-c3c(Cl)cc4c(N5C[C@H]6CC[C@@H](C5)N6)nc(OC[C@@]56CCCN5C[C@H](F)C6)nc4c3F)c12 [Compound 22, 4-(4-((1R,5S)-3,8-diazabicyclo[3.2.1]octan-3-yl)-6-chloro-8-fluoro-2-(((2R,7aS)-2-fluorotetrahydro-1H-pyrrolizin-7a(5H)-yl)methoxy)quinazolin-7-yl)-3-methylbenzo[b]thiophen-2-amine]"
< 500 nM,500 to 5000 nM,"Nc1sc2c(F)ccc(-c3c(Cl)cc4c(N5C[C@H]6CC[C@@H](C5)N6)nc(OC[C@@]56CCCN5C[C@H](F)C6)nc4c3F)c2c1C1CC1 [Compound 20, 4-(4-((1R,5S)-3,8-diazabicyclo[3.2.1]octan-3-yl)-6-chloro-8-fluoro-2-(((2R,7aS)-2-fluorotetrahydro-1H-pyrrolizin-7a(5H)-yl)methoxy)quinazolin-7-yl)-3-cyclopropyl-7-fluorobenzo[b]thiophen-2-amine]"
< 500 nM,500 to 5000 nM,"CN1CCC[C@H]1COc1nc(N2C[C@H](N)C[C@H](O)C2)c2cc(Cl)c(-c3cccc4sc(N)nc34)c(F)c2n1 [Compound 3, (3S,5R)-5-amino-1-(7-(2-aminobenzo[d]thiazol-4-yl)-6-chloro-8-fluoro-2-(((S)-1-methylpyrrolidin-2-yl)methoxy)quinazolin-4-yl)piperidin-3-ol]"
< 500 nM,> 5000 nM,"Nc1nc2c(-c3cc4nc(OCC56CCCN5CCC6)nc(N5CC6CCC(C5)N6)c4nc3O)ccc(F)c2s1 [Compound 16, 7-(2-amino-7-fluorobenzo[d]thiazol-4-yl)-4-(3,8-diazabicyclo[3.2.1]octan-3-yl)-2-((tetrahydro-1H-pyrrolizin-7a(5H)-yl)methoxy)pyrido[3,2-d] pyrimidin-6-ol]"
500 to 5000 nM,500 to 5000 nM,"CN1CCC[C@H]1COc1nc(N2C[C@@H](N)[C@@H](F)C2)c2cc(Cl)c(-c3cccc4sc(N)nc34)c(F)c2n1 [Compound 10, 4-(4-((3R,4S)-3-amino-4-fluoropyrrolidin-1-yl)-6-chloro-8-fluoro-2-(((S)-1-methylpyrrolidin-2-yl)methoxy)quinazolin-7-yl)benzo[d]thiazol-2-amine]"
500 to 5000 nM,> 5000 nM,"CN1CCC[C@H]1COc1nc(N2C[C@H](N)C[C@@H](F)C2)c2cc(Cl)c(-c3cccc4sc(N)nc34)c(F)c2n1 [Compound 7, 4-(4-((3R,5R)-3-amino-5-fluoropiperidin-1-yl)-6-chloro-8-fluoro-2-(((S)-1-methylpyrrolidin-2-yl)methoxy)quinazolin-7-yl)benzo[d]thiazol-2-amine]"
< 500 nM,500 to 5000 nM,"COc1nc2c(N3CC4CCC(C3)N4)nc(OCC34CCCN3CCC4)nc2cc1-c1ccc(F)c2sc(N)nc12 [Compound 17, 4-(4-(3,8-diazabicyclo[3.2.1]octan-3-yl)-6-methoxy-2-((tetrahydro-1H-pyrrolizin-7a(5H)-yl)methoxy)pyrido[3,2-d]pyrimidin-7-yl)-7-fluorobenzo[d]thiazol-2-amine]"
500 to 5000 nM,> 5000 nM,"COc1nc2c(N3CCNCC3)nc(OC[C@@]34CCCN3C[C@H](F)C4)nc2cc1-c1ccc(F)c2sc(N)nc12 [Compound 18, 7-fluoro-4-(2-(((2R,7aS)-2-fluorotetrahydro-1H-pyrrolizin-7a(5H)-yl)methoxy)-6-methoxy-4-(piperazin-1-yl)pyrido[3,2-d]pyrimidin-7-yl) benzo[d]thiazol-2-amine]"
500 to 5000 nM,> 5000 nM,"CN1CCC[C@H]1COc1nc(N2C[C@H](N)C[C@H](F)C2)c2cc(Cl)c(-c3cccc4sc(N)nc34)c(F)c2n1 [Compound 6, 4-(4-((3R,5S)-3-amino-5-fluoropiperidin-1-yl)-6-chloro-8-fluoro-2-(((S)-1-methylpyrrolidin-2-yl)methoxy)quinazolin-7-yl)benzo[d]thiazol-2-amine]"
